The source made the active and inactive calls. The rule behind the calls is not given here.
Experiments:
Type in all cases: functional, cell-based
[1] = target: T1, Taste receptor type 2 member 3 (Homo sapiens) (UniProt Q9NYW6); test: Agonist activity at recombinant human N-terminal rat ST3 receptor-fused TAS2R3 expressed in HEK293T cells co-expressing Galpha16gust44 assessed as effect on intracellular calcium level at 100 uM by FLIPR assay
T1 sequence (whole entry): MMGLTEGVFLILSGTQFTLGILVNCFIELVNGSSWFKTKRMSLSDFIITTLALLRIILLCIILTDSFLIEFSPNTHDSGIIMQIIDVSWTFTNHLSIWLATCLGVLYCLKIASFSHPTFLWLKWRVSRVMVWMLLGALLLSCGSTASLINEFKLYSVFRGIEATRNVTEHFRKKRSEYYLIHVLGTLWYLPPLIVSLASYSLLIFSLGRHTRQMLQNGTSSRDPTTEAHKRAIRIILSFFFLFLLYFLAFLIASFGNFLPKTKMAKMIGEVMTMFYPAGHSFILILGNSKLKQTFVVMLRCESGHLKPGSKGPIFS

[2] = target: T2, Taste receptor type 2 member 46 (Homo sapiens) (UniProt P59540); test: (§1) Competitive antagonist activity at recombinant human N-terminal rat ST3 receptor-fused TAS2R46 expressed in HEK293T cells co-expressing Galpha16gust44 assessed as inhibition strychnine-induced intracellular calcium level by measuring strychnine induced maximum signal amplitude at 10 uM by FLIPR assay (reference value: 0.42 +/- 0.09 au))
T2 sequence (whole entry): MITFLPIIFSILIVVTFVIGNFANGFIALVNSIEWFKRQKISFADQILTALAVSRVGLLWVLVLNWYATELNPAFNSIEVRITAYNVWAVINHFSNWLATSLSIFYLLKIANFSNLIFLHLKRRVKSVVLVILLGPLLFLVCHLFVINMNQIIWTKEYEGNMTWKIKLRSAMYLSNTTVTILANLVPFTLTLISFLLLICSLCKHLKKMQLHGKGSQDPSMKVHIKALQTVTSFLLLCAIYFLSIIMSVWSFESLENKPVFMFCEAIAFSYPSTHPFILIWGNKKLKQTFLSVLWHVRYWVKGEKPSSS

[3] = target: T3, Taste receptor type 2 member 39 (Homo sapiens) (UniProt P59534); test: Agonist activity at recombinant human N-terminal rat ST3 receptor-fused TAS2R39 expressed in HEK293T cells co-expressing Galpha16gust44 assessed as effect on intracellular calcium level at 100 uM by FLIPR assay
T3 sequence (whole entry): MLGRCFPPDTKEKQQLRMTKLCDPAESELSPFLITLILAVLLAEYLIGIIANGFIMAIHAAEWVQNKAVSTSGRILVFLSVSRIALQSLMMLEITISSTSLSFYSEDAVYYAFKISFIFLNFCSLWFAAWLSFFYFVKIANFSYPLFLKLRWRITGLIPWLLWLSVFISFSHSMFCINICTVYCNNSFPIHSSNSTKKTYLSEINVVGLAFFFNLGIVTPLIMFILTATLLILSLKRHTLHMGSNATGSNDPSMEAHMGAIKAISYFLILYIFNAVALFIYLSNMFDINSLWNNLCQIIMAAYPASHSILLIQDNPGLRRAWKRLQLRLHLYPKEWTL

[4] = target: T2, Taste receptor type 2 member 46 (Homo sapiens); test: as §1, with “30” for “10”
[5] = target: T4, Taste receptor type 2 member 43 (Homo sapiens) (UniProt P59537); test: Agonist activity at recombinant human N-terminal rat ST3 receptor-fused TAS2R43 expressed in HEK293T cells co-expressing Galpha16gust44 assessed as effect on intracellular calcium level at 100 uM by FLIPR assay
T4 sequence (whole entry): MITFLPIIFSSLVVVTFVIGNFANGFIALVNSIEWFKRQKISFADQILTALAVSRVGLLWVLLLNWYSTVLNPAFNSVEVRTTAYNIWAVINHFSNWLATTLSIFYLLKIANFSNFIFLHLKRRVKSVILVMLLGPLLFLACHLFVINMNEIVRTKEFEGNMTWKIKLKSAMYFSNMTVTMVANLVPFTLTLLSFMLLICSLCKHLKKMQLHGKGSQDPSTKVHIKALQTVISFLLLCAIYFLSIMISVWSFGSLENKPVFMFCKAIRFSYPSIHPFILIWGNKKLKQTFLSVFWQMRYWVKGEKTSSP

[6] = target: T5, Taste receptor type 2 member 16 (Homo sapiens) (UniProt Q9NYV7); test: Agonist activity at recombinant human N-terminal rat ST3 receptor-fused TAS2R16 expressed in HEK293T cells co-expressing Galpha16gust44 assessed as effect on intracellular calcium level at 100 uM by FLIPR assay
T5 sequence (whole entry): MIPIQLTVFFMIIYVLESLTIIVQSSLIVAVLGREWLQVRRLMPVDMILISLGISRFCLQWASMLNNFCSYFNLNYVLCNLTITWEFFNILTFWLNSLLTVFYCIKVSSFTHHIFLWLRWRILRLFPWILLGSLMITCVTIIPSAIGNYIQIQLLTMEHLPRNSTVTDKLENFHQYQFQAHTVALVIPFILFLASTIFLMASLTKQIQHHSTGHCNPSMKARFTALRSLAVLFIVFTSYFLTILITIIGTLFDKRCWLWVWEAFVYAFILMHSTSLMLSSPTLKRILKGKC

SMILES: C/C1=C\C[C@H](O)/C(C)=C/[C@H]2OC(=O)[C@@H](C)C2CC1 (stereo partly specified)
- Activity [1]: inactive
- Activity [2]: 0.4 a.u.
- Activity [3]: inactive
- Activity [4]: 0.41 a.u.
- Activity [5]: inactive
- Activity [6]: inactive

Source: ChEMBL document CHEMBL4421717, “Antagonists and agonists of bitter taste receptors and uses thereof” (2012)
